Bridge positions count the residues as written; N and C are the ends. Square brackets hold non-standard residues; d marks the D form. Peptide text beside a SMILES is read from it. * marks the point of attachment. Phe(4-COOH) = N[C@@H](Cc1ccc(C(=O)O)cc1)C(=O)O; Bip = N[C@@H](Cc1ccc(-c2ccccc2)cc1)C(=O)O; Phe(3-Me) = Cc1cccc(C[C@H](N)C(=O)O)c1; Abu(3S-NH2) = C[C@H](N)[C@H](N)C(=O)O; Val(3-OH) = CC(C)(O)[C@H](N)C(=O)O; Ala(cPr) = N[C@@H](CC1CC1)C(=O)O; 4Pal = N[C@@H](Cc1ccncc1)C(=O)O; Cha = N[C@@H](CC1CCCCC1)C(=O)O; Cba = N[C@@H](CC1CCC1)C(=O)O; Carboxymethyl = O=C(O)C*; Orn = NCCC[C@H](N)C(=O)O; Aun = NCCCCCCCCCCC(=O)O; Dab = NCC[C@H](N)C(=O)O; Dap = NC[C@H](N)C(=O)O; Ac3c = NC1(C(=O)O)CC1
Target: T1, PD-1/PD-L1 interaction (PE-labeled human PD-L1-Ig binding to Jurkat cell line over-expressing human PD-1) (Homo sapiens, UniProt Q15116)
T1 construct: expressed in transfected cells; host or cells: Jurkat
T1 sequence (Q15116 25-288): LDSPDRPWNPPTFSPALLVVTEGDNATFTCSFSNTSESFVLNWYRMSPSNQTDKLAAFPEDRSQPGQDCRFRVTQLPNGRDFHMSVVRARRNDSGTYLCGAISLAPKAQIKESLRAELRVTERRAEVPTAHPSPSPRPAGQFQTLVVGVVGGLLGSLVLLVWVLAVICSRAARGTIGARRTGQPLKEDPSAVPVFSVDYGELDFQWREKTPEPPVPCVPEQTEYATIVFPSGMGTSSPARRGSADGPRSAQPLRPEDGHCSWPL
Assay: Jurkat-PD-1 Cell Binding High-Content Screening Assay (CBA)
Type: cell-based
Details: Jurkat cell line over-expressing human PD-1; PE-labeled PD-L1-Ig 20 nM final; read-out: Jurkat hPD1-PDL1 IC50
Summary of the method: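 Jurkat-hPD-1 cells, DMEM/10% FCS; cpd 2 h 37° C; PE-PD-L1-Ig 20 nM final, 1 h; 4% PFA fix + Hoechst 33342, 3× dPBS wash; high-content imaging read-out.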

## Cc1cccc(C[C@@H]2NC(=O)[C@H](CC(=O)O)NC(=O)[C@H](Cc3ccc(OCC(=O)O)cc3)NC(=O)[C@H](CCCNC(=N)N)NC(=O)CSC[C@@H](C(=O)NC3(C(=O)NCCCCCCCCCCC(=O)O)CC3)NC(=O)[C@H]([C@@H](C)O)NC(=O)[C@H](C(C)C)NC(=O)[C@H](CC3CC3)NC(=O)[C@H](CCN)NC(=O)[C@@H](CC(C)C)NC(=O)[C@H](CCCN)NC(=O)[C@H](Cc3ccc(OCC(=O)O)cc3)NC(=O)[C@H](Cc3ccc(-c4ccccc4)cc3)NC(=O)[C@H](Cc3ccc(OCC(=O)O)cc3)NC2=O)c1 [Compound 2163] ({CH2CO}-RY(Carboxymethyl)D[Phe(3-Me)]Y(Carboxymethyl)[Bip]Y(Carboxymethyl)[Orn][dL][Dab][Ala(cPr)]VTC[Ac3c][Aun]-OH; thioether N-14)
  IC50: 93 nM

## Cc1cccc(C[C@@H]2NC(=O)[C@H](CC(=O)O)NC(=O)[C@H](Cc3ccc(OCC(=O)O)cc3)NC(=O)[C@H](CCCNC(=N)N)NC(=O)CSC[C@@H](C(=O)NC3(C(=O)NCCCCCCCCCCC(=O)O)CC3)NC(=O)[C@H]([C@@H](C)O)NC(=O)[C@H](C(C)C)NC(=O)[C@H](CC3CCC3)NC(=O)[C@H](CCN)NC(=O)[C@@H](CC(C)C)NC(=O)[C@H](CCCN)NC(=O)[C@H](Cc3ccc(OCC(=O)O)cc3)NC(=O)[C@H](Cc3ccc(-c4ccccc4)cc3)NC(=O)[C@H](Cc3ccc(OCC(=O)O)cc3)NC2=O)c1 [Compound 2164] ({CH2CO}-RY(Carboxymethyl)D[Phe(3-Me)]Y(Carboxymethyl)[Bip]Y(Carboxymethyl)[Orn][dL][Dab][Cba]VTC[Ac3c][Aun]-OH; thioether N-14)
  IC50: 33.3 nM

## Cc1cccc(C[C@@H]2NC(=O)[C@H](CC(=O)O)NC(=O)[C@H](Cc3ccc(C(=O)O)cc3)NC(=O)[C@H](CN)NC(=O)CSC[C@@H](C(=O)N[C@@H](CCN)C(=O)NCCCCCCCCCCC(=O)O)NC(=O)[C@H]([C@@H](C)O)NC(=O)[C@H](C(C)C)NC(=O)[C@H](CC3CCCCC3)NC(=O)[C@H](CCN)NC(=O)[C@@H](CC(C)C)NC(=O)[C@H](CCCN)NC(=O)[C@H](Cc3ccc(OCC(=O)O)cc3)NC(=O)[C@H](Cc3ccc(-c4ccccc4)cc3)NC(=O)[C@H](Cc3ccc(OCC(=O)O)cc3)NC2=O)c1 [Compound 2165] ({CH2CO}-[Dap][Phe(4-COOH)]D[Phe(3-Me)]Y(Carboxymethyl)[Bip]Y(Carboxymethyl)[Orn][dL][Dab][Cha]VTC[Dab][Aun]-OH; thioether N-14)
  IC50: 21.8 nM

## Cc1cccc(C[C@@H]2NC(=O)[C@H](CC(=O)O)NC(=O)[C@H](Cc3ccc(C(=O)O)cc3)NC(=O)[C@H](CCCNC(=N)N)NC(=O)CSC[C@@H](C(=O)N[C@@H](CCN)C(=O)NCCCCCCCCCCC(=O)O)NC(=O)[C@H]([C@@H](C)O)NC(=O)[C@H](C(C)C)NC(=O)[C@H](CC3CCCCC3)NC(=O)[C@H](CCN)NC(=O)[C@@H](CC(C)C)NC(=O)[C@H](CCCN)NC(=O)[C@H](Cc3ccc(OCC(=O)O)cc3)NC(=O)[C@H](Cc3ccc(-c4ccccc4)cc3)NC(=O)[C@H](Cc3ccc(OCC(=O)O)cc3)NC2=O)c1 [Compound 2166] ({CH2CO}-R[Phe(4-COOH)]D[Phe(3-Me)]Y(Carboxymethyl)[Bip]Y(Carboxymethyl)[Orn][dL][Dab][Cha]VTC[Dab][Aun]-OH; thioether N-14)
  IC50: 11.8 nM

## Cc1cccc(C[C@@H]2NC(=O)[C@H](CC(=O)O)NC(=O)[C@H](Cc3ccc(C(=O)O)cc3)NC(=O)[C@H](Cc3ccncc3)NC(=O)CSC[C@@H](C(=O)NC3(C(=O)NCCCCCCCCCCC(=O)O)CC3)NC(=O)[C@H]([C@@H](C)O)NC(=O)[C@H](C(C)C)NC(=O)[C@H](CC3CCCCC3)NC(=O)[C@H](CCN)NC(=O)[C@@H](CC(C)C)NC(=O)[C@H](CCCN)NC(=O)[C@H](Cc3ccc(OCC(=O)O)cc3)NC(=O)[C@H](Cc3ccc(-c4ccccc4)cc3)NC(=O)[C@H](Cc3ccc(OCC(=O)O)cc3)NC2=O)c1 [Compound 2167] ({CH2CO}-[4Pal][Phe(4-COOH)]D[Phe(3-Me)]Y(Carboxymethyl)[Bip]Y(Carboxymethyl)[Orn][dL][Dab][Cha]VTC[Ac3c][Aun]-OH; thioether N-14)
  IC50: 9.4 nM

## Cc1cccc(C[C@@H]2NC(=O)[C@H](CC(=O)O)NC(=O)[C@H](Cc3ccc(C(=O)O)cc3)NC(=O)[C@H](Cc3ccncc3)NC(=O)CSC[C@@H](C(=O)NC3(C(=O)NCCCCCCCCCCC(=O)O)CC3)NC(=O)[C@H]([C@@H](C)O)NC(=O)[C@H](C(C)C)NC(=O)[C@H](CC(C)C)NC(=O)[C@H](CCN)NC(=O)[C@@H](CC(C)C)NC(=O)[C@H](CCCN)NC(=O)[C@H](Cc3ccc(OCC(=O)O)cc3)NC(=O)[C@H](Cc3ccc(-c4ccccc4)cc3)NC(=O)[C@H](Cc3ccc(OCC(=O)O)cc3)NC2=O)c1 [Compound 2168] ({CH2CO}-[4Pal][Phe(4-COOH)]D[Phe(3-Me)]Y(Carboxymethyl)[Bip]Y(Carboxymethyl)[Orn][dL][Dab]LVTC[Ac3c][Aun]-OH; thioether N-14)
  IC50: 26.7 nM

## Cc1cccc(C[C@@H]2NC(=O)[C@H](CC(=O)O)NC(=O)[C@H](Cc3ccc(OCC(=O)O)cc3)NC(=O)[C@H](CCCNC(=N)N)NC(=O)CSC[C@@H](C(=O)N[C@@H](CCN)C(=O)NCCCCCCCCCCC(=O)O)NC(=O)[C@H]([C@@H](C)O)NC(=O)[C@H](C(C)C)NC(=O)[C@H](CC3CC3)NC(=O)[C@H](CCN)NC(=O)[C@@H](CC(C)C)NC(=O)[C@H](CCCN)NC(=O)[C@H](Cc3ccc(OCC(=O)O)cc3)NC(=O)[C@H](Cc3ccc(-c4ccccc4)cc3)NC(=O)[C@H](Cc3ccc(OCC(=O)O)cc3)NC2=O)c1 [Compound 2169] ({CH2CO}-RY(Carboxymethyl)D[Phe(3-Me)]Y(Carboxymethyl)[Bip]Y(Carboxymethyl)[Orn][dL][Dab][Ala(cPr)]VTC[Dab][Aun]-OH; thioether N-14)
  IC50: 14.3 nM

## Cc1cccc(C[C@@H]2NC(=O)[C@H](CC(=O)O)NC(=O)[C@H](Cc3ccc(OCC(=O)O)cc3)NC(=O)[C@H](CCCNC(=N)N)NC(=O)CSC[C@@H](C(=O)N[C@@H](CCN)C(=O)NCCCCCCCCCCC(=O)O)NC(=O)[C@H](CO)NC(=O)[C@H](C(C)(C)O)NC(=O)[C@H](CC3CCCCC3)NC(=O)[C@H](CCN)NC(=O)[C@@H](CC(C)C)NC(=O)[C@H](CCCN)NC(=O)[C@H](Cc3ccc(OCC(=O)O)cc3)NC(=O)[C@H](Cc3ccc(-c4ccccc4)cc3)NC(=O)[C@H](Cc3ccc(OCC(=O)O)cc3)NC2=O)c1 [Compound 2171] ({CH2CO}-RY(Carboxymethyl)D[Phe(3-Me)]Y(Carboxymethyl)[Bip]Y(Carboxymethyl)[Orn][dL][Dab][Cha][Val(3-OH)]SC[Dab][Aun]-OH; thioether N-14)
  IC50: 4.6 nM

## Cc1cccc(C[C@@H]2NC(=O)[C@H](CC(=O)O)NC(=O)[C@H](Cc3ccc(OCC(=O)O)cc3)NC(=O)[C@H](CN)NC(=O)CSC[C@@H](C(=O)N[C@H](C(=O)NCCCCCCCCCCC(=O)O)[C@H](C)N)NC(=O)[C@H](CO)NC(=O)[C@H](C(C)C)NC(=O)[C@H](CC3CCCCC3)NC(=O)[C@H](CCN)NC(=O)[C@@H](CC(C)C)NC(=O)[C@H](CCCN)NC(=O)[C@H](Cc3ccc(OCC(=O)O)cc3)NC(=O)[C@H](Cc3ccc(-c4ccccc4)cc3)NC(=O)[C@H](Cc3ccc(OCC(=O)O)cc3)NC2=O)c1 [Compound 2172] ({CH2CO}-[Dap]Y(Carboxymethyl)D[Phe(3-Me)]Y(Carboxymethyl)[Bip]Y(Carboxymethyl)[Orn][dL][Dab][Cha]VSC[Abu(3S-NH2)][Aun]-OH; thioether N-14)
  IC50: 30.6 nM

## Cc1cccc(C[C@@H]2NC(=O)[C@H](CC(=O)O)NC(=O)[C@H](Cc3ccc(OCC(=O)O)cc3)NC(=O)[C@H](CN)NC(=O)CSC[C@@H](C(=O)N[C@@H](CCN)C(=O)NCCCCCCCCCCC(=O)O)NC(=O)[C@H]([C@H](C)N)NC(=O)[C@H](C(C)C)NC(=O)[C@H](CC3CCCCC3)NC(=O)[C@H](CCN)NC(=O)[C@@H](CC(C)C)NC(=O)[C@H](CCCN)NC(=O)[C@H](Cc3ccc(OCC(=O)O)cc3)NC(=O)[C@H](Cc3ccc(-c4ccccc4)cc3)NC(=O)[C@H](Cc3ccc(OCC(=O)O)cc3)NC2=O)c1 [Compound 2173] ({CH2CO}-[Dap]Y(Carboxymethyl)D[Phe(3-Me)]Y(Carboxymethyl)[Bip]Y(Carboxymethyl)[Orn][dL][Dab][Cha]V[Abu(3S-NH2)]C[Dab][Aun]-OH; thioether N-14)
  IC50: 55 nM

## Cc1cccc(C[C@@H]2NC(=O)[C@H](CC(=O)O)NC(=O)[C@H](Cc3ccc(OCC(=O)O)cc3)NC(=O)[C@H](CN)NC(=O)CSC[C@@H](C(=O)N[C@@H](CCN)C(=O)NCCCCCCCCCCC(=O)O)NC(=O)[C@H](CO)NC(=O)[C@H]([C@H](C)N)NC(=O)[C@H](CC3CCCCC3)NC(=O)[C@H](CCN)NC(=O)[C@@H](CC(C)C)NC(=O)[C@H](CCCN)NC(=O)[C@H](Cc3ccc(OCC(=O)O)cc3)NC(=O)[C@H](Cc3ccc(-c4ccccc4)cc3)NC(=O)[C@H](Cc3ccc(OCC(=O)O)cc3)NC2=O)c1 [Compound 2174] ({CH2CO}-[Dap]Y(Carboxymethyl)D[Phe(3-Me)]Y(Carboxymethyl)[Bip]Y(Carboxymethyl)[Orn][dL][Dab][Cha][Abu(3S-NH2)]SC[Dab][Aun]-OH; thioether N-14)
  IC50: 11.3 nM

## Cc1cccc(C[C@@H]2NC(=O)[C@H](CC(=O)O)NC(=O)[C@H](Cc3ccc(OCC(=O)O)cc3)NC(=O)[C@H](CN)NC(=O)CSC[C@@H](C(=O)N[C@@H](CCN)C(=O)NCCCCCCCCCCC(=O)O)NC(=O)[C@H](CO)NC(=O)[C@H](C(C)(C)O)NC(=O)[C@H](CC3CCC3)NC(=O)[C@H](CCN)NC(=O)[C@@H](CC(C)C)NC(=O)[C@H](CCCN)NC(=O)[C@H](Cc3ccc(OCC(=O)O)cc3)NC(=O)[C@H](Cc3ccc(-c4ccccc4)cc3)NC(=O)[C@H](Cc3ccc(OCC(=O)O)cc3)NC2=O)c1 [Compound 2175] ({CH2CO}-[Dap]Y(Carboxymethyl)D[Phe(3-Me)]Y(Carboxymethyl)[Bip]Y(Carboxymethyl)[Orn][dL][Dab][Cba][Val(3-OH)]SC[Dab][Aun]-OH; thioether N-14)
  IC50: 10.8 nM
